# Test results: patent publication US20030133918A1, “Methods for ex vivo propagation of somatic stem cells” (priority 2001, published 2003)
# Key:
# [1] = system: rat liver epithelial cell strains; assay: Colony formation assay of rat liver epithelial cell strains in Xs-free or Xs-containing medium; format: cell-based; conditions: for Colony formation efficiency Xs+/Xs− Ratio: 50 μM xanthosine vs Xs-free medium; for Colony formation efficiency, Xs+ (Mean % ± SD; n = 6): 50 μM xanthosine, 14 days, 200 cells per well
# Source text: Three Xs-free (“Xs-F”) cell strains and 8 Xs-derived (“Xs-D”) cell strains were chosen for cell kinetics analysis. Despite the similarities in their derivation course, there is a remarkable difference in the growth properties of Xs-F and Xs-D cell strains (see Table 1). […] This is a highly significance difference (p=0.004). […] The estimated mean increase in colony formation efficiency for Xs-D strains in Xs-containing medium is 11-fold, ranging from a 10% (Xs-D9; not statistically significant) to a 40-fold increase (Xs-D13; p<0.0001). The growth of Xs-F strains was unaffected by Xs even at the higher concentration of 100 μM (data not shown). [table]
# [2] = system: Rat liver epithelial cells; assay: Clonal derivation of rat liver epithelial cells by limiting dilution in 96-well plates; format: cell-based
# Source text: Using xanthosine (Xs) as a pharmacological agent to switch tissue stem cells from their default asymmetric cell kinetics program to exponential kinetics, we attempted to derive clonal rat liver epithelial stem cell lines that retained the ability to divide with asymmetric cell kinetics when Xs was removed. Rat liver epithelial cells found in the low-speed supernatant of centrifuged cells from in situ collagenase-perfused livers were clonally-derived by limiting dilution in 96-well plates in the absence or presence of added Xs (200 μM or 400 μM). Colonies with epithelial cell morphology arose with similar efficiency under both conditions (4.1±0.31 percent for both 480 Xs− wells and 960 Xs+ wells). The efficiency of establishing cell strains from these initial colonies was also similar, 50% (3/6) for colonies expanded in Xs-free medium and 65% (11/17) for colonies derived in Xs-containing medium. Each type of cell strain has now been maintained continuously in culture for >80 cell doublings. Early passage cells were cryo-preserved in liquid nitrogen and can be re-established in culture after thawing.
# bone marrow cells = assay: Non-adherent cell production in long-term bone marrow culture; format: cell-based, mice; conditions: Xs 1 mM, medium with 25% horse serum
# Experimental: The non-adherent cell production rate (CPR) is defined as the total number of non-adherent cells produced in a single long-term culture normalized to days of culture (mean=95 days; range=66 to 132) and input cell number (range=5×10^6 to 20×10^6 cells). To develop long-term bone marrow cultures, freshly isolated bone marrow cells from tibia and femurs of 7-12 week-old female C57BL/6J mice were grown in culture medium supplemented with 25% horse serum.
smiles,measurement,setting,value
"O=c1[nH]c(=O)c2ncn([C@@H]3O[C@H](CO)[C@@H](O)[C@H]3O)c2[nH]1 [Xs, xanthosine]",Growth of Xs-F strains,"[1]; Xs-F strains, even at the higher concentration of 100 μM, data not shown",unaffected
same,Colony formation efficiency Xs+/Xs− Ratio,[1]; cell strain Xs-D4,1.5
same,"Colony formation efficiency, Xs+ (Mean % ± SD; n = 6)",[1]; cell strain Xs-D4,8.0 ± 1.1%
same,Colony formation efficiency Xs+/Xs− Ratio,[1]; cell strain Xs-D6,1.4
same,"Colony formation efficiency, Xs+ (Mean % ± SD; n = 6)",[1]; cell strain Xs-D6,5.3 ± 1.8%
same,Colony formation efficiency Xs+/Xs− Ratio,[1]; cell strain Xs-D7,≧22
same,"Colony formation efficiency, Xs+ (Mean % ± SD; n = 6)",[1]; cell strain Xs-D7,6.7 ± 2.2%
same,Colony formation efficiency Xs+/Xs− Ratio,[1]; cell strain Xs-D8,17
same,"Colony formation efficiency, Xs+ (Mean % ± SD; n = 6)",[1]; cell strain Xs-D8,22 ± 3.6%
same,Colony formation efficiency Xs+/Xs− Ratio,[1]; cell strain Xs-D9,1.1
same,"Colony formation efficiency, Xs+ (Mean % ± SD; n = 6)",[1]; cell strain Xs-D9,11 ± 2.6%
same,Colony formation efficiency Xs+/Xs− Ratio,[1]; cell strain Xs-D13,40
same,"Colony formation efficiency, Xs+ (Mean % ± SD; n = 6)",[1]; cell strain Xs-D13,12 ± 2.7%
same,Colony formation efficiency Xs+/Xs− Ratio,[1]; cell strain Xs-D14,1.3
same,"Colony formation efficiency, Xs+ (Mean % ± SD; n = 6)",[1]; cell strain Xs-D14,0.4 ± 0.67%
same,Colony formation efficiency Xs+/Xs− Ratio,[1]; cell strain Xs-D15,5.3
same,"Colony formation efficiency, Xs+ (Mean % ± SD; n = 6)",[1]; cell strain Xs-D15,10 ± 1.6%
same,Colony formation efficiency Xs+/Xs− Ratio,[1]; cell strain Xs-F1,0.9
same,"Colony formation efficiency, Xs+ (Mean % ± SD; n = 6)",[1]; cell strain Xs-F1,9.8 ± 2.2%
same,Colony formation efficiency Xs+/Xs− Ratio,[1]; cell strain Xs-F2,1.0
same,"Colony formation efficiency, Xs+ (Mean % ± SD; n = 6)",[1]; cell strain Xs-F2,29 ± 3.7%
same,Colony formation efficiency Xs+/Xs− Ratio,[1]; cell strain Xs-F3,1.0
same,"Colony formation efficiency, Xs+ (Mean % ± SD; n = 6)",[1]; cell strain Xs-F3,18 ± 3.7%
same,Estimated mean increase in colony formation efficiency for Xs-D strains in Xs-containing medium,"[1]; mean of 8 Xs-D strains, Xs-containing vs Xs-free medium",11 fold
same,Increase in colony formation efficiency in Xs-containing medium,"[1]; strain Xs-D9, not statistically significant",10%
same,Increase in colony formation efficiency in Xs-containing medium,"[1]; strain Xs-D13, p<0.0001",40 fold
same,Efficiency with which colonies with epithelial cell morphology arose,"[2]; 960 Xs+ wells, added Xs 200 μM or 400 μM, same value for 480 Xs− wells",4.1±0.31%
same,Efficiency of establishing cell strains from initial colonies,"[2]; colonies derived in Xs-containing medium (11/17), Xs-free 50% (3/6)",65%
same,"Increase in the rate of production of non-adherent, differentiated cells",bone marrow cells,80%
